# In US20240156773A1, “METHOD FOR INCREASING BLOOD DECANOIC ACID CONCENTRATION, BLOOD-DECANOIC-ACID-CONCENTRATION-INCREASING AGENT, PHARMACEUTICAL COMPOSITION, AND FOOD COMPOSITION” (The Nisshin OilliO Group, Ltd., priority 2021, published 2024):
# Assay: Administration test of triglyceride to rat: blood decanoic acid concentration
# Conditions: in vivo, po
# Description: Male SD rats aged 7 weeks (Japan SLC, Inc.) were kept using a TPX cage (W21.8×D37.3×H18.1 cm) with three rats or less/cage. The rats were fed ad libitum with solid feed “Labo MR stock” (Nosan Corporation.) sterilized with radiation throughout the feeding period, and fasted about 16 hours before the administration of a test fat and oil sample. The rats were fed ad libitum with distilled water as drinking water using a water supply bottle. The acclimation period was a week, and it was confirmed that abnormalities of general conditions were not observed on the final day of the acclimation period, and body weight was measured using an electronic scale (GX-3000; A & D Company, Limited). The rats were divided into 6 groups for each test fat and oil sample using a grouping software (Statlight; Yukms Co., Ltd.) so that the body weight of the groups was almost equal (6 rats in each group).
# Each TG was orally administered in a single dose at 1 mL/body using a 1 mL disposable syringe and a disposable gastric tube for rats. […]
# To the extracted lipid fraction, 2 ml of a 0.5 mol/L NaOH-methanol solution was added. […] The hexane layer was transferred to a vial, and used for GC (Agilent Technologies) in the conditions shown in Table 3, and the blood decanoic acid concentration was determined by the internal standard method. […]
structure (smiles),measurement,value
"CCCCCCCCCC(=O)OCC(COC(=O)CCCCCCCCC)OC(=O)CCCCCCCCC [TG1, tridecanoin]","Blood decanoic acid concentration, average value",124.4 µM
